As a reminder, the EC50 is the midpoint of the concentration-response curve. As a reminder, the Emax is the greatest response seen or fitted, relative to the assay's reference.

Experiment [1] concerns the target T1, human mAChR M1 (Homo sapiens, UniProt P11229).
T1 sequence (P11229 1-460): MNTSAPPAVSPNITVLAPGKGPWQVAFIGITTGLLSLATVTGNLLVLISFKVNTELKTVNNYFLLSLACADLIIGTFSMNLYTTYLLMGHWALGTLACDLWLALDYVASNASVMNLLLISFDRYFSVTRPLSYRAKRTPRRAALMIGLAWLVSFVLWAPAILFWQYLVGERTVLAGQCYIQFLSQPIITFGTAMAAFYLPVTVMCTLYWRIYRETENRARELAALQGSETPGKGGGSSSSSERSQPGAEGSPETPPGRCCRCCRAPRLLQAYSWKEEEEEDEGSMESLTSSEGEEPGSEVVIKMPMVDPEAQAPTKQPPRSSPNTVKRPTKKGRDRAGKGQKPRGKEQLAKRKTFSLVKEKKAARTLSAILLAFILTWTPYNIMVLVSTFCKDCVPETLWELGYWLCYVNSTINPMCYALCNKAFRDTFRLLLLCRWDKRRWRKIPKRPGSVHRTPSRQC
Description: mAChR M1 cell-based functional assay (calcium mobilization), PAM activity: increase in the EC20 acetylcholine response. The settings on record: CHO-K1 cells expressing hM1; calcium flux (Fluo-4); potentiation of EC20 acetylcholine response. The method in brief: (§1)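 Calcium mobilization in CHO-K1 cells stably expressing hM1, Fluo-4 loaded; 11-point 1:3 compound series added at 4 s, acetylcholine EC20 at 144 s, kinetic fluorescence ratio at 1 Hz. Agonism: rise on compound alone, Emax relative to acetylcholine maximum; PAM: potentiation of EC20 response; four-parameter logistic fits.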

The target in experiment [2] is T1, human mAChR M1. Description: mAChR M1 cell-based functional assay (calcium mobilization), agonist activity upon compound addition alone. The following applies: CHO-K1 cells expressing hM1; for EC50: calcium mobilization upon compound addition, no acetylcholine; for Emax: compound alone, relative to the maximum for acetylcholine. The method in brief: as §1
In general terms: Calcium flux is commonly read through the fluorescence of an indicator in the cells.

As to `Cc1c(Cc2ccc(-n3cccn3)cc2)cc(C(=O)N[C@H]2CCC[C@@H]2O)nc1-c1ccn(C)n1` [Compound 59, 4-(4-(1H-pyrazol-1-yl)benzyl)-N-((1S,2S)-2-hydroxycyclopentyl)-5-methyl-6-(1-methyl-1H-pyrazol-3-yl)picolinamide], on human mAChR M1 [1], the EC50 came out at 1.98 µM and the Emax is 85%. Also, at human mAChR M1 [2], the EC50 is > 10 µM and the Emax was < 5%.

For `Cc1c(Cc2ccc(-n3cccn3)cc2)cc(C(=O)N[C@H]2CC[C@@H]2O)nc1-c1ccn(C)n1` [Compound 60, 4-(4-(1H-pyrazol-1-yl)benzyl)-N-((1S,2S)-2-hydroxycyclobutyl)-5-methyl-6-(1-methyl-1H-pyrazol-3-yl)picolinamide], at human mAChR M1 [1], the Emax worked out at 79%. At human mAChR M1 [2], the EC50 is > 10 µM and the Emax was < 5%.

On to `Cc1c(Cc2ccc(-n3cccn3)cc2)cc(C(=O)NCC2CCOCC2)nc1-c1ccn(C)n1` [Compound 61, 4-(4-(1H-pyrazol-1-yl)benzyl)-5-methyl-6-(1-methyl-1H-pyrazol-3-yl)-N-((tetrahydro-2H-pyran-4-yl)methyl)picolinamide], for which the maximum response (Emax) on human mAChR M1 [1] was 64%; on human mAChR M1 [2], < 5%. In addition, the EC50 at human mAChR M1 [2] was > 10 µM.

Consider `Cc1c(Cc2ccc(-n3cccn3)cc2)cc(C(=O)NC[C@@H]2CCCO2)nc1-c1ccn(C)n1` [Compound 62, (S)-4-(4-(1H-pyrazol-1-yl)benzyl)-5-methyl-6-(1-methyl-1H-pyrazol-3-yl)-N-((tetrahydrofuran-2-yl)methyl)picolinamide], for which, on human mAChR M1 [1], the EC50 is 4.63 µM and the Emax was found to be 77%. On human mAChR M1 [2], the EC50 is > 10 µM and the Emax is < 5%.

`Cc1c(Cc2ccc(-n3cccn3)cc2)cc(C(=O)NC[C@H]2CCCO2)nc1-c1ccn(C)n1` [Compound 63, (R)-4-(4-(1H-pyrazol-1-yl)benzyl)-5-methyl-6-(1-methyl-1H-pyrazol-3-yl)-N-((tetrahydrofuran-2-yl)methyl)picolinamide]: the maximal effect (Emax) on human mAChR M1 [1] was found to be 57%. For the same molecule, on human mAChR M1 [2], the EC50 is > 10 µM and the Emax was < 5%.

Take `Cc1c(Cc2ccc(-n3cccn3)cc2)cc(C(=O)NC2CCOCC2(C)C)nc1-c1ccn(C)n1` (stereo not drawn) [Compound 64, 4-(4-(1H-pyrazol-1-yl)benzyl)-N-(3,3-dimethyltetrahydro-2H-pyran-4-yl)-5-methyl-6-(1-methyl-1H-pyrazol-3-yl)picolinamide]: on human mAChR M1 [1], the EC50 was determined as 2.89 µM and the Emax stood at 91%. Also, at human mAChR M1 [2], the EC50 is > 10 µM and the Emax is < 5%.

For `Cc1ccc(Cc2cc(C(=O)N[C@H]3CCOC[C@@H]3O)nc(-c3ccn(C)n3)c2C)cn1` [Compound 65, N-((3R,4S)-3-hydroxytetrahydro-2H-pyran-4-yl)-5-methyl-6-(1-methyl-1H-pyrazol-3-yl)-4-((6-methylpyridin-3-yl)methyl)picolinamide], the maximal response (Emax) at human mAChR M1 [1] is 71%. Besides, on human mAChR M1 [2], the EC50 is > 10 µM and the Emax is < 5%.

As to `Cc1ccc(Cc2cc(C(=O)N[C@H]3CCCC[C@@H]3O)nc(-c3ccn(C)n3)c2C)cn1` [Compound 66, N-((1S,2S)-2-hydroxycyclohexyl)-5-methyl-6-(1-methyl-1H-pyrazol-3-yl)-4-((6-methylpyridin-3-yl)methyl)picolinamide], the Emax at human mAChR M1 [1] is 66%. Besides, at human mAChR M1 [2], the concentration giving a half-maximal response (EC50) was > 10 µM and the Emax is < 5%.

For the molecule `Cc1ccc(Cc2cc(C(=O)N[C@H]3CCC[C@@H]3O)nc(-c3ccn(C)n3)c2C)cn1` [Compound 67, N-((1S,2S)-2-hydroxycyclopentyl)-5-methyl-6-(1-methyl-1H-pyrazol-3-yl)-4-((6-methylpyridin-3-yl)methyl)picolinamide], the Emax on human mAChR M1 [1] was found to be 38%. At human mAChR M1 [2], the EC50 is > 10 µM and the Emax was < 5%.

The values above are taken from US11851406B2, “Positive allosteric modulators of the muscarinic acetylcholine receptor M1” (Vanderbilt University, priority 2018, dated 2023).
